Test results published in PubChem BioAssay (NCI).
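Exposure lasted 48 hours, with cells grown in 96-well plates and compounds tested at five concentrations. GI50 marks 50% less growth. Definition used: TGI = concentration required for complete inhibition of growth.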

Assays:
Experiment in all cases: NCI tumour cell line growth inhibition, 48 h
M14 melanoma = system: M14 melanoma
SF-295 CNS = system: SF-295 CNS
NCI-H522 lung = system: NCI-H522 lung
SN12C renal = system: SN12C renal
HS 578T breast = system: HS 578T breast
A498 renal = system: A498 renal
ACHN renal = system: ACHN renal
HCT-15 colon = system: HCT-15 colon
SK-MEL-2 melanoma = system: SK-MEL-2 melanoma
HOP-92 NSCLC = system: HOP-92 NSCLC

Structure (SMILES) | TGI (M14 melanoma) | TGI (SF-295 CNS) | TGI (NCI-H522 lung) | TGI (SN12C renal) | TGI (HS 578T breast) | TGI (A498 renal) | TGI (ACHN renal) | TGI (HCT-15 colon) | TGI (SK-MEL-2 melanoma) | TGI (HOP-92 NSCLC) | GI50 (M14 melanoma) | GI50 (SK-MEL-2 melanoma) | GI50 (SF-295 CNS) | GI50 (NCI-H522 lung) | GI50 (SN12C renal) | GI50 (HS 578T breast) | GI50 (A498 renal) | GI50 (ACHN renal) | GI50 (HCT-15 colon)
NNc1ncnc2cccc(Cl)c12 | > 100 µM | > 100 µM | > 100 µM | > 100 µM | > 100 µM | > 100 µM | > 100 µM | > 100 µM |  |  |  |  |  |  |  |  |  |  | 
CCCCC1N=CNc2c1ccc1c2[nH]c2ccccc21 (configuration not stated) | 6.74 µM | 7.25 µM | 3.57 µM | 7.8 µM |  | 29.8 µM | 5.45 µM | 4.72 µM | 8.89 µM | 9.72 µM |  |  |  |  |  |  |  |  | 
O=C(O)CCCc1cc2c(s1)-c1cccc3cccc-2c13 | > 100 µM | > 100 µM | 51.1 µM | 80.4 µM |  |  | 76 µM | 51.8 µM | 46.3 µM | 39 µM |  |  |  |  |  |  |  |  | 
C[C@H]1CCC2C(CN3CCCCC3)C(=O)OC2[C@]2(C)C(=O)CC(N3CCCCC3)C12O (some centres not stated) |  | 22.3 µM | 3.25 µM | 14.8 µM |  | 12.8 µM | 9.73 µM |  | 90.4 µM | 7.54 µM |  |  |  |  |  |  |  |  | 
COC(=O)C1=Cc2cn(S(=O)(=O)c3ccc(C)cc3)c3cccc(c23)C(C=C(C)C)N1C(C)=O (configuration not stated) | > 100 µM | > 100 µM | 20 µM | > 100 µM |  | > 100 µM | > 100 µM |  | 29.5 µM | > 100 µM |  |  |  |  |  |  |  |  | 
O=C1CCCCCCCCCCOC(=O)CCCCCCCCCCO1 | > 100 µM | > 100 µM | > 100 µM | > 100 µM |  | > 100 µM | > 100 µM | > 100 µM | > 100 µM | > 100 µM |  |  |  |  |  |  |  |  | 
Cc1cc(C)c(C2=NO[C@@H]3C(=O)N(c4ccc(Cc5ccc(N6C(=O)[C@H]7C(c8c(C)cc(C)cc8C)=NO[C@H]7C6=O)cc5)cc4)C(=O)[C@H]23)c(C)c1 | > 100 µM | > 100 µM |  | > 100 µM |  | > 100 µM |  | > 100 µM | > 100 µM | > 100 µM |  |  |  |  |  |  |  |  | 
Cc1ccc(S(=O)(=O)OC2CSSCC2OS(=O)(=O)c2ccc(C)cc2)cc1 (configuration not stated) | 25.1 µM | 30.5 µM | 22.8 µM | 24 µM |  |  | 28.9 µM | 22.5 µM | 29.1 µM | 23.7 µM |  |  |  |  |  |  |  |  | 
O=C(O)c1ccccc1C1c2ccc(Cl)cc2Oc2cc(Cl)ccc21 | > 100 µM | > 100 µM | > 100 µM | > 100 µM |  |  | > 100 µM | > 100 µM | > 100 µM | > 100 µM |  |  |  |  |  |  |  |  | 
C=C1CCC2(C(C)=O)COC1(C)O2 (configuration not stated) | > 100 µM | > 100 µM | > 10 µM | > 100 µM |  |  | > 100 µM | > 100 µM |  |  |  |  |  |  |  |  |  |  | 
C=CNC(=S)n1nc(-c2ccccc2NC(=O)C(F)(F)F)c(=O)n(C(=S)NC=C)c1=S | > 100 µM | 81.6 µM | 60.5 µM | > 100 µM |  |  | > 100 µM | > 100 µM | > 100 µM | 36.5 µM |  |  |  |  |  |  |  |  | 
O=C(CC1(O)C(=O)Nc2ccc([N+](=O)[O-])cc21)c1ccc(Br)cc1 (configuration not stated) | > 100 µM | > 100 µM | 47.9 µM | > 100 µM |  | 50.3 µM | > 100 µM | > 100 µM | > 100 µM |  |  |  |  |  |  |  |  |  | 
O=[N+]([O-])c1cccc([I+]c2ccccc2)c1 | 33.5 µM | 25.6 µM | 23.5 µM | 22.8 µM | 68.2 µM | 28.4 µM | > 100 µM | 30.1 µM | 35.2 µM |  | 11.1 µM | 17.8 µM | 10.9 µM | 11.3 µM | 10.4 µM | 10.1 µM | 10.4 µM | 19.6 µM | 5.35 µM
